For orientation: EC50 means the concentration that produces a half-maximal response.

Data on three molecules can be found in patent publication US6790652B1, “Method and apparatus for high density format screening for bioactive molecules” (BioImage A/S, priority 1998, dated 2004).

One assay has as its system BHKhM1 cells. The assay can be described thus: Fluo-3 calcium response of BHKhM1 cells on porous membrane lowered onto compound spots on glass. The settings on record: approx. 10 nanoliters. The assay is classed as cell-based. Here is the method:
Ionomycin was printed onto a glass surface at two concentrations (10 mM and 1 mM), and thapsigargin was printed onto the surface at 1 mM. All spots were allowed to dry. The volume of liquid spotted was approx. 10 nanoliters per spot. At the time indicated as 0 s the still-wet membrane with the cells was lowered down onto the glass surface so that the membrane and the glass came in direct contact, thereby dissolving the compounds deposited in the spots.

Assay [1] relates to A10 smooth muscle cells. The settings on record: for response of detector cells (JC-1 fluorescence): five-concentration grid. How it is done:
Cells were grown to confluence on tissue culture treated polystyrene in DMEM 10% FCS, 100 μg/ml streptomycin and 100 IU/ml penicillin. […] FCCP. FCCP (Sigma) was printed onto a supported porous aluminium oxide filter (Anopore, Whatman International Ltd, Maidstone, Kent, UK) in a 5×5 spot grid, at a single concentration of 50 μM in DMSO, or as five rows of five spots (50, 5, […], 0.05 and 0.005 μM in DMSO) and allowed to dry. The volume of liquid in each spot was approximately 1 nanoliter. The A10 cells were loaded for 25 min in KRW supplemented with 10% FCS and 5 μM JC-1 (Molecular Probes Inc.) at 37° C. After three washes in KRW, the cells were placed on the stage of a Nikon Diaphot epifluorescence microscope and imaged using a 2× plan apochromatic objective and a CCD camera (Princeton Instruments, NY USA). The cells were excited by 450-490 nm light and light emitted from the cells was filtered by a dichroic mirror (505 nm) and an emission filter (510-560 nm). Exposure/ntegration times of 0.5 s were used and images acquired at 4 s intervals. At the time indicated as 0 in FIGS. 8 and 9 a filter with spots of FCCP in the patterns mentioned above was lowered down into the buffer overlying the cells and rapidly adjusted to a distance of about 300 μm above the cell layer and thereafter fixed in that position.

Assay [2] relates to A10 smooth muscle cells. As to conditions: read-out: EC50 for a mitochondrial depolarisation in these cells, known value; cited from earlier work.

Where two headings read alike, the source gives them in different places.

Turning to `C/C=C(/C)C(=O)O[C@H]1C(C)=C2[C@H]([C@@H]1OC(=O)CCCCCCC)[C@@](C)(OC(C)=O)C[C@H](OC(=O)CCC)[C@@]1(O)[C@H]2OC(=O)[C@@]1(C)O` [thapsigargin], in the assay with BHKhM1 cells (spots printed at 1 mM), the “Fluo-3 fluorescence response (time profile)” value is “transient and lower in intensity than that of either concentration of ionomycin”.

Turning to `N#CC(C#N)=NNc1ccc(OC(F)(F)F)cc1` [FCCP, carbonyl cyanide p-trifluoromethoxyphenylhydrazone], the “response of detector cells (JC-1 fluorescence)” value in the assay on A10 smooth muscle cells [1] (spot concentration 0.005 μM in DMSO) is “do not show detectable responses”; with A10 smooth muscle cells [1] (spot concentration 0.05 μM in DMSO), “do not show detectable responses”; in the assay on A10 smooth muscle cells [1] (spot concentration 0.5 μM in DMSO) it was “clearly give positive responses”; in the assay with A10 smooth muscle cells [1] (spot concentration 5 μM in DMSO) it was “clearly give positive responses”; in the assay with A10 smooth muscle cells [1] (spot concentration 50 μM in DMSO), “quickest response”. The “fluorescence intensity time profile (mitochondrial membrane depolarisation)” value in the assay on A10 smooth muscle cells [1] (spots of 50 μM in DMSO, 5×5 grid, single concentration) is “steep rise in fluorescence intensity”. In the assay on A10 smooth muscle cells [1] (spots of 50 μM in DMSO, approx. 1 nanoliter, five central spots), the “lag phase before rise in fluorescence intensity” value fell in the range of 10 to 15 s. In addition, the EC50 with A10 smooth muscle cells [2] was about 8 nM.

Take `C[C@H](CCC(=O)O)C[C@H](C)C[C@H](C)C(=O)/C=C(\O)[C@H](C)C[C@H](C)C/C=C/[C@@H](C)[C@@H](O)[C@@H](C)[C@@H](O)C[C@@H]1CC[C@@](C)([C@H]2CC[C@@](C)([C@@H](C)O)O2)O1` [Ionomycin, ionomycin]: the “Fluo-3 fluorescence response (time profile)” value in the assay with BHKhM1 cells (spots printed at 1 mM) is “sustained responses”. Also, in the assay on BHKhM1 cells (spots printed at 10 mM), the “Fluo-3 fluorescence response (onset, spatial size, intensity)” value is “earliest, spatially largest, and most intense response”; the “Fluo-3 fluorescence response (time profile)” value was “sustained responses”.
